This note sets out measurements from patent US9023789B2, “Amylin analogs and pharmaceutical compositions thereof” (Novo Nordisk A/S, priority 2012, dated 2015).

One data set has as its system Sprague Dawley (SD) rats. In words: ASSAY (I) efficacy testing on appetite (food intake) using an ad libitum fed rat model. It counts as in vivo. The conditions noted are these: rat, 30 nmol/kg. Put shortly:
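Individual food consumption was logged each hour up to 7 h and again at 24 h, occasionally 48 h, with Grubbs-test outliers removed. Each 200–250 g Sprague Dawley rat, free-feeding in its home cage under reversed lighting, received a single ip, po or sc dose of 0.01–3 mg/kg at lights-off, alongside a vehicle group.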

For the next data set, the target named is T1, rat calcitonin receptor (Rattus norvegicus, UniProt P32214).
T1 construct: expressed in transfected cells; host or cells: BHK tk'ts 13 (transient, FuGENE 6), membranes
T1 sequence (P32214 25-479 isoform P32214-2 limits assumed): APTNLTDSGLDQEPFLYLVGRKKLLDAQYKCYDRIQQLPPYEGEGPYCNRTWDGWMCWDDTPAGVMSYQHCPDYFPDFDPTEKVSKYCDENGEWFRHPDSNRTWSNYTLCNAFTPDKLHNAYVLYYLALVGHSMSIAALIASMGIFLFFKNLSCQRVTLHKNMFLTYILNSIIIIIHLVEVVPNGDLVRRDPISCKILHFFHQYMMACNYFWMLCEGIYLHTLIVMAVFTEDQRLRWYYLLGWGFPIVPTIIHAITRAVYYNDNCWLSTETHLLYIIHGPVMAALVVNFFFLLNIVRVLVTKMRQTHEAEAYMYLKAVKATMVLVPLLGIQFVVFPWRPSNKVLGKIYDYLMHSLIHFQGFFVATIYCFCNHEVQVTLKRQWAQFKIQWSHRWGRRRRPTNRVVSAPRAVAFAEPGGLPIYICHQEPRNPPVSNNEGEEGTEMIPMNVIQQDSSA
In words: ASSAY (VIII) binding to the rat calcitonin receptor. The conditions noted are these: Table 7, read-out: rCTR bind IC50. Summed up: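 Receptor source: membranes from transiently transfected BHK tk′ts 13 cells expressing rat calcitonin receptor, collected roughly 48 hours after transfection.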

Data set [1] can be described thus: ASSAY (IV) determination of solubility. It counts as physicochemical. Put shortly:
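UPLC read-out of polypeptide concentration after centrifugation. Samples: aqueous polypeptide stock ([…]) + 100 mM buffer 1:1, glycylglycine pH 3.0–5.0 or bistrispropane pH 6.0–8.0; 18 h, RT.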

Data set [2] concerns the target T2, human amylin receptor (membranes from Amylin 3(a)/CRE-luc cells) (Homo sapiens, UniProt O60896+P30988).
T2 construct: expressed in transfected cells
T2 sequence (P30988 25-474): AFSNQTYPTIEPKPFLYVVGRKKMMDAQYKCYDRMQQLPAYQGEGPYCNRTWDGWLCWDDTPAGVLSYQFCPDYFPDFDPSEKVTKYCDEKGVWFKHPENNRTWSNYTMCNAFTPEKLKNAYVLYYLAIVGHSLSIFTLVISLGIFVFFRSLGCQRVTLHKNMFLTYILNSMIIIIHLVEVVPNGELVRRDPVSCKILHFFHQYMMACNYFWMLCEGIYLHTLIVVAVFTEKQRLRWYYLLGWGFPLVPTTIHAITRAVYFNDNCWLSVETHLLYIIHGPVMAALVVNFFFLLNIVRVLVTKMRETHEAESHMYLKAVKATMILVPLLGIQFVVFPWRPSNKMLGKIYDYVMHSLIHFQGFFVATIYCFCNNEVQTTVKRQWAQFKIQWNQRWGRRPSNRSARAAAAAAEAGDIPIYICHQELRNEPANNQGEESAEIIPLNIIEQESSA
T2 sequence (O60896 24-148 partner): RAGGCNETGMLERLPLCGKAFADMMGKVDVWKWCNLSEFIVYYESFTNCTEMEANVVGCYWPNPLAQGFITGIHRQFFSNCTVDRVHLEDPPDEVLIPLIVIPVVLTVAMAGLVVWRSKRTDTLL
In words: ASSAY (V) binding to the human amylin receptor (SPA, 125I-rat amylin).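 For all read-outs here: competition binding of cell membranes (35 ng/µL) mixed with SPA beads in 384-well plates at 40 µL total volume, read by scintillation counting.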 The conditions noted are these: for IC50: Table 4, read-out: hAmylin-R bind IC50.

[3] abbreviates: bistrispropane buffer, pH 6.5, read-out: Solubility pH 6.5 Concentration.
[4] abbreviates: bistrispropane buffer, pH 7.5, read-out: Solubility pH 7.5 Concentration.
[5] abbreviates: bistrispropane buffer, pH 6.0, read-out: Solubility pH 6.0 Concentration.
The mark [6] stands for this setting: bistrispropane buffer, pH 7.0, read-out: Solubility pH 7.0 Concentration.
[7] abbreviates: bistrispropane buffer, pH 8.0, read-out: Solubility pH 8.0 Concentration.
Where [8] appears, read: glycylglycine buffer, pH 3.0, read-out: Solubility pH 3.0 Concentration.
Setting [9] is: glycylglycine buffer, pH 4.0, read-out: Solubility pH 4.0 Concentration.
[10] abbreviates: glycylglycine buffer, pH 5.0, read-out: Solubility pH 5.0 Concentration.
The mark [11] stands for this setting: Table 5, selectivity, hCTR bind IC50 / hAmylin-R bind IC50.
Where [12] appears, read: Table 5a, selectivity, hCTR bind IC50 / hAmylin-R bind IC50.
[13] abbreviates: Table 5b, selectivity, hCTR bind IC50 / hAmylin-R bind IC50.
Setting [14] is: Table 5c, selectivity, hCTR bind IC50 / hAmylin-R bind IC50.
Where [15] appears, read: Table 7, human binding selectivity, included for comparison.
Where [16] appears, read: Table 7a (preferred compounds), human binding selectivity, included for comparison.
The mark [17] stands for this setting: ratio of human calcitonin receptor binding IC50 to human amylin receptor binding IC50.

Values after ≈ are worked out from the molar mass of the structure shown. Where two headings read alike, the source gives them in different places. Numbered stars: 1 amine (or outer) side, 2 acyl side, 3 side chain; on linkers, the order of the positions; unused ones are H or OH. Bridge positions count the residues as written; N and C are the ends. Side chains are listed from the residue outwards. Peptide text beside a SMILES is read from it. * marks the point of attachment. C20 diacid = O=C(O)CCCCCCCCCCCCCCCCCCC(=O)*; γGlu = O=C(O)[C@H](CCC(=O)[*:2])N[*:1]

Consider `CC[C@H](C)[C@H](NC(=O)[C@H](C)NC(=O)CNC(=O)[C@H](Cc1ccccc1)NC(=O)[C@H](CC(N)=O)NC(=O)[C@@H]1CCCN1C(=O)[C@H](CO)NC(=O)[C@H](CO)NC(=O)[C@H](Cc1c[nH]cn1)NC(=O)[C@H](CCCNC(=N)N)NC(=O)[C@H](CC(C)C)NC(=O)[C@H](Cc1ccccc1)NC(=O)[C@H](CCC(=O)O)NC(=O)[C@H](C)NC(=O)[C@H](CC(C)C)NC(=O)[C@H](CCCNC(=N)N)NC(=O)[C@H](CCC(N)=O)NC(=O)[C@@H](NC(=O)[C@H](C)NC(=O)[C@@H]1CSSC[C@H](NC(=O)[C@@H](N)CCCCNC(=O)CC[C@H](NC(=O)CCCCCCCCCCCCCCCCCCC(=O)O)C(=O)O)C(=O)N[C@@H](CC(N)=O)C(=O)N[C@@H]([C@@H](C)O)C(=O)N[C@@H](C)C(=O)N[C@@H]([C@@H](C)O)C(=O)N1)[C@@H](C)O)C(=O)N1CCC[C@H]1C(=O)N[C@@H](CO)C(=O)N[C@@H](CO)C(=O)N[C@H](C(=O)N[C@@H](CC(N)=O)C(=O)N[C@H](C(=O)NCC(=O)N[C@@H](CCCNC(=N)N)C(=O)N[C@@H](CCC(=O)O)C(=O)N[C@H](C(=O)N[C@@H](Cc1ccc(O)cc1)C(N)=O)[C@@H](C)O)C(C)C)[C@@H](C)O` [Example 108] (H-K([γGlu-C20 diacid])CNTATCATQRLAEFLRHSSPNFGAIPSSTNVGRETY-NH2; disulfide 2-7; N-terminus assumed), for which, in the data set with Sprague Dawley (SD) rats, the “Food intake reduction 0-24 h 30 nmol/kg (%)” value is recorded as 29%. Moreover, the “Food intake reduction 24-48 h 30 nmol/kg (%)” value with Sprague Dawley (SD) rats was determined as 0%. For the same molecule, the 50% inhibitory concentration (IC50) on rat calcitonin receptor was 0.0861 µM; in data set [2] it was 0.000232 µM. For the same molecule, the solubility at 18 h in data set [1] (setting [3]), in data set [1] (setting [4]), in data set [1] (setting [5]), in data set [1] (setting [6]), in data set [1] (setting [7]) and in data set [1] (setting [8]) was at least 200 µM throughout. Also, the solubility at 18 h in data set [1] (setting [9]) and in data set [1] (setting [10]) was at least 200 µM each time. The “Ratio hCT/hAmylin binding” value in data set [2] (setting [11]), in data set [2] (setting [12]), in data set [2] (setting [13]), in data set [2] (setting [14]), in data set [2] (setting [15]) and in data set [2] (setting [16]) was 28.5 each time. In addition, in data set [2] (setting [17]), the “Ratio hCT/hAmylin binding” value stood at 28.5.
For the molecule `CC[C@H](C)[C@H](NC(=O)[C@H](C)NC(=O)CNC(=O)[C@H](Cc1ccccc1)NC(=O)[C@H](CC(N)=O)NC(=O)[C@@H]1CCCN1C(=O)[C@H](CO)NC(=O)[C@H](CO)NC(=O)[C@H](Cc1c[nH]cn1)NC(=O)[C@H](CCCNC(=N)N)NC(=O)[C@H](CC(C)C)NC(=O)[C@H](Cc1ccccc1)NC(=O)[C@H](CC(N)=O)NC(=O)[C@H](C)NC(=O)[C@H](CC(C)C)NC(=O)[C@H](CCCNC(=N)N)NC(=O)[C@H](CCC(N)=O)NC(=O)[C@@H](NC(=O)[C@H](C)NC(=O)[C@@H]1CSSC[C@H](NC(=O)[C@H](CCCCN)NC(=O)COCCOCCNC(=O)COCCOCCNC(=O)CC[C@H](NC(=O)CCCCCCCCCCCCCCCCCCC(=O)O)C(=O)O)C(=O)N[C@@H](CC(N)=O)C(=O)N[C@@H]([C@@H](C)O)C(=O)N[C@@H](C)C(=O)N[C@@H]([C@@H](C)O)C(=O)N1)[C@@H](C)O)C(=O)N1CCC[C@H]1C(=O)N[C@@H](CO)C(=O)N[C@@H](CO)C(=O)N[C@H](C(=O)N[C@@H](CC(N)=O)C(=O)N[C@H](C(=O)NCC(=O)N[C@@H](CO)C(=O)N[C@@H](CC(N)=O)C(=O)N[C@H](C(=O)N[C@@H](Cc1ccc(O)cc1)C(N)=O)[C@@H](C)O)C(C)C)[C@@H](C)O` [Example 24], the “Food intake reduction 0-24 h 30 nmol/kg (%)” value with Sprague Dawley (SD) rats came out at 22%. In the data set on Sprague Dawley (SD) rats, the “Food intake reduction 24-48 h 30 nmol/kg (%)” value came out at 1%. Also, the concentration for half-maximal inhibition (IC50) at rat calcitonin receptor came to 0.35 µM. Besides, the solubility at 18 h in data set [1] (setting [3]), in data set [1] (setting [4]), in data set [1] (setting [5]), in data set [1] (setting [6]), in data set [1] (setting [7]) and in data set [1] (setting [8]) was at least 200 µM in each case. In addition, the solubility at 18 h in data set [1] (setting [9]) and in data set [1] (setting [10]) was at least 200 µM in each case. Also, the “Ratio hCT/hAmylin binding” value in data set [2] (setting [11]), in data set [2] (setting [12]), in data set [2] (setting [13]), in data set [2] (setting [14]), in data set [2] (setting [15]) and in data set [2] (setting [16]) was 90.0 each time. For the same molecule, the “Ratio hCT/hAmylin binding” value in data set [2] (setting [17]) came out at 90.0.
As to `CC[C@H](C)[C@H](NC(=O)[C@H](C)NC(=O)CNC(=O)[C@H](Cc1ccccc1)NC(=O)[C@H](CC(N)=O)NC(=O)[C@@H]1CCCN1C(=O)[C@H](CO)NC(=O)[C@H](CO)NC(=O)[C@H](Cc1c[nH]cn1)NC(=O)[C@H](CCCNC(=N)N)NC(=O)[C@H](CC(C)C)NC(=O)[C@H](Cc1ccccc1)NC(=O)[C@H](CCC(=O)O)NC(=O)[C@H](C)NC(=O)[C@H](CC(C)C)NC(=O)[C@H](CCCNC(=N)N)NC(=O)[C@H](CCC(N)=O)NC(=O)[C@@H](NC(=O)[C@H](C)NC(=O)[C@@H]1CSSC[C@H](NC(=O)[C@@H](N)CCCCNC(=O)CC[C@H](NC(=O)CC[C@H](NC(=O)CCCCCCCCCCCCCCCCCCC(=O)O)C(=O)O)C(=O)O)C(=O)N[C@@H](CC(N)=O)C(=O)N[C@@H]([C@@H](C)O)C(=O)N[C@@H](C)C(=O)N[C@@H]([C@@H](C)O)C(=O)N1)[C@@H](C)O)C(=O)N1CCC[C@H]1C(=O)N[C@@H](CO)C(=O)N[C@@H](CO)C(=O)N[C@H](C(=O)N[C@@H](CC(N)=O)C(=O)N[C@H](C(=O)NCC(=O)N1CCC[C@H]1C(=O)N[C@@H](CCCNC(=N)N)C(=O)N[C@H](C(=O)N[C@@H](Cc1ccc(O)cc1)C(N)=O)[C@@H](C)O)C(C)C)[C@@H](C)O` [Example 110] (H-K([γGlu-γGlu-C20 diacid])CNTATCATQRLAEFLRHSSPNFGAIPSSTNVGPRTY-NH2; disulfide 2-7), the “Food intake reduction 0-24 h 30 nmol/kg (%)” value in the data set with Sprague Dawley (SD) rats was 68%. The “Food intake reduction 24-48 h 30 nmol/kg (%)” value in the data set on Sprague Dawley (SD) rats came to 31%. Further, the figures for the IC50 (at rat calcitonin receptor; in data set [2]) were 0.0383 µM and 0.000326 µM, respectively. The solubility at 18 h in data set [1] (setting [3]) is at least 200 µM; in data set [1] (setting [4]) it was 184 µM (≈ 842 µg/mL); in data set [1] (setting [5]) it was at least 200 µM; in data set [1] (setting [6]), at least 200 µM; in data set [1] (setting [7]) it was 166 µM (≈ 760 µg/mL); in data set [1] (setting [8]), at least 200 µM. The solubility at 18 h in data set [1] (setting [9]) and in data set [1] (setting [10]) was at least 200 µM throughout. The “Ratio hCT/hAmylin binding” value in data set [2] (setting [11]), in data set [2] (setting [12]), in data set [2] (setting [13]), in data set [2] (setting [14]), in data set [2] (setting [15]) and in data set [2] (setting [16]) was 53.6 each time. Besides, the “Ratio hCT/hAmylin binding” value in data set [2] (setting [17]) was 53.6.

What is called IC50 is the midpoint of a concentration-inhibition curve.
